The source of these data is patent US20230329237A1, “MUSA PLANTS, FIELDS […] PLANTS” (Taminco BV, priority 2020, published 2023).

One assay concerns Foc TR4 chlamydospores. As to the kind of experiment: In vitro efficacy of metam sodium on Foc TR4 chlamydospores (colonies on PDA plates). In kind it is cell-based, Fusarium oxysporum f. sp. cubense Tropical Race 4. On the procedure: Foc TR4 chlamydospores were extracted from infested soil and incubated with a dilution series of metam sodium for 5 min and 60 min at room temperature. Thereafter, the samples were diluted 10×to get reduction of the treatment and sufficient dilution of chlamydospores to avoid lack of resolution when grown on plate. Aliquots of 100 μl were plated on PDA plates in duplicate and incubated for 3 days at 25° C. Plates were photographed and scored.

The subject of the next assay is parasitic nematodes. The assay is described as follows: Nematode analysis of soil samples from the treated field. In kind it is in vivo. The following applies: any tested soil samples. On the procedure: (§1) Soil Analysis. Soil samples were obtained at 20, 40, and 60 cm before application and every 24 hours beginning 48 hours after application, for seven days.
Plant Pathology Analysis. Soil samples used for Panama Disease and nematode analyses were aseptically isolated in culture medium and incubated for seven days at room temperature. Organisms were identified as follows: 20 grams of composite soil sample was diluted with 40 mL distilled water (dH2O); 1 drop of Tween 20 detergent was added, and the sample mixed. A 1 mL aliquot was taken from the solution and diluted with 9 mL dH2O; three further serial dilutions were made. From each dilution, 100 μL were spread on solid Komada growth medium (Sun et al., Phytopathology 68: 1672-1673, 1978). Growth could be seen 7 days after inoculation.

The next assay has as its system Cavendish banana plants. As to the kind of experiment: Field trial: growth and development of banana plants transplanted into metam sodium treated soil. Format: in vivo, Musa (Cavendish banana). As to the method:
The analyses described in this example were carried out in the Philippines in a field in which Musa trees (specifically bananas) were to be planted, in the spring (beginning in March). Final determinations were carried out in September of the same year.
(§2) Metam Sodium Application. Metam sodium 510 SL (equivalent to 42% w/w) was applied to soil at the following doses: 0 liters per hectare (L/ha), 750 L/ha, 1500 L/ha, 2250 L/ha, 3000 L/ha.
(§3) Prior to injection, soil was prepared using a rototiller to break the soil structure from 0 cm to 80 cm deep, allowing for the smooth and even injection application by an injection machine. The soil was then leveled and made uniform, and the metam sodium was applied at two depths: 30 cm and 60 cm, using injection methods. The temperature was at a minimum of 10 °C and soil humidity was between 50 and 60% holding capacity, allowing the applied product to transform from metam sodium (liquid) to MITC (gas).
(§4) The application was made using an injection machine wherein the machine lowered shanks and began moving forward such that the shanks lowered to a depth of 60 cm and injectors applied the metam sodium into the soil. When the injection at 60 cm was complete, the process was repeated for the entire field at 30 cm. The treated soil in the field was then sealed using a packer roller (which was part of the injection machinery, located at the back end of the machine), after each application.
Plant Selection and Transplantation. Cavendish banana plants were used for this investigation. In order to avoid plants already contaminated by other soil, all plants were produced in vitro using art-recognized methods. Plants were transplanted into the field 14 days after the final soil reading was taken (21 days after treatment).
Data Gathering. Data were gathered at monthly intervals beginning three months after banana plants were transplanted. A total of three data collection sessions were conducted. Data including the number of leaves, plant height, and girth size were collected.

Assay [1] relates to F. oxysporum f. sp. cubense. As to the kind of experiment: Panama disease analysis of soil samples from the treated field (Komada medium). In kind it is in vivo, Fusarium oxysporum f. sp. cubense Tropical Race 4. The settings on record: any of the treated groups (750-3000 L/ha); any day post application. As to the method: as §2, §3, §4, §1
Plant Pathology Analysis. […]

Setting [2] is: 750 L/ha, six months after treatment.
[3] abbreviates: 1500 L/ha, six months after treatment.
Setting [4] is: 2250 L/ha, six months after treatment.
[5] abbreviates: 3000 L/ha, six months after treatment.

Structures are written as SMILES.

Consider `CNC(=S)[S-].[Na+]` [metam sodium, sodium N-methyldithiocarbamate], for which, in the assay on Foc TR4 chlamydospores (100× dilution, prolonged incubation (60 vs 5 minutes)), the “reducing the number of surviving chlamydospores, measured as growing colonies” value is listed as “more effective”. For the same molecule, the “efficacy on Foc TR4 colony growth on plates” value with Foc TR4 chlamydospores (dilution of 10×, incubation time 5 minutes) is reported as “effective”; in the assay with Foc TR4 chlamydospores (dilution of 100×, 5 and 60 minutes) it was “less effective”. Moreover, the “reduction in viability of Foc TR4 chlamydospores” value with Foc TR4 chlamydospores (first test, dilutions from 1000 up to 10×10^6-fold, 60 min) is on record as “No significant reduction in viability”. Moreover, the “efficacy against Foc TR4 chlamydospores under in vitro conditions” value with Foc TR4 chlamydospores (overall, dependent on high concentrations) is “effective against Foc TR4 chlamydospores”. Further, the “efficacy on surviving chlamydospores” value with Foc TR4 chlamydospores (second test, 10× and 100× dilutions) is listed as “(partially) effective”. Further, the “number of chlamydospores that survived” value in the assay on Foc TR4 chlamydospores (second test, dilutions of 1000× and more) is listed as “did not affect the number of chlamydospores that survived”. For the same molecule, the “parasitic nematodes in soil” value in the assay with parasitic nematodes is given as “no parasitic nematodes were noted”. Further, the “average girth size of banana plant, increase” value with Cavendish banana plants (750 L/ha) was ~1 cm; with Cavendish banana plants (1500-3000 L/ha), 4-6 cm. In addition, the “average height of banana plant, increase” value is recorded as ~5 cm in the assay with Cavendish banana plants (750 L/ha) and 20-23 cm with Cavendish banana plants (1500-3000 L/ha). The “percent of plants at either shooting or bagging stage” value in the assay with Cavendish banana plants (setting [2]) is given as 11%; in the assay on Cavendish banana plants (setting [3]), 28%; in the assay on Cavendish banana plants (setting [4]), 27%; with Cavendish banana plants (setting [5]), 35%. Further, the “percent of plants at shooting stage” value in the assay on Cavendish banana plants (setting [2]) came out at 9%; with Cavendish banana plants (setting [3]), 10%; with Cavendish banana plants (setting [4]), 17%; in the assay with Cavendish banana plants (setting [5]) it was 22%. Also, the “plants reaching bagging stage” value with Cavendish banana plants (setting [2]) is “did not have a meaningful effect”. The “percent of plants at bagging stage” value in the assay with Cavendish banana plants (1500 to 3000 L/ha, six months after treatment) was 11-19%. The “average number of leaves, increase” value with Cavendish banana plants (regardless of dose applied (750-3000 L/ha), vs 0 L/ha) is reported as “roughly 1.5 fold”. Also, the “Foc TR4 in soil (soil contamination)” value in assay [1] is given as “No Foc TR4 was detected”.
